Results from patent US20130040882A1, “USE OF FIBROBLAST GROWTH FACTOR FRAGMENTS” (NOVARTIS AG, priority 2003, published 2013).

System: uterine gene expression
Assay: Gene expression profiling (HGU133A) in the uterus of ovariectomized monkeys treated with estradiol, tamoxifen or raloxifene
Format: in vivo, cynomolgus monkeys (Macaca fascicularis)

Structure (SMILES): CC/C(=C(\c1ccccc1)c1ccc(OCCN(C)C)cc1)c1ccccc1 [tamoxifen]
- Uterine expression increase: Collagen type 1 alpha 2 (compared with OVX controls): 6.1 fold
- Uterine expression increase: collagen type 1 alpha1 (compared with OVX controls): 3.5 fold
- Uterine expression increase: collagen type III alpha 1 (compared with OVX controls): 3.4 fold
- Uterine expression increase: collagen type IV alpha 1 (compared with OVX controls): 3.2 fold
- Uterine expression increase: insulin-like GF binding protein 2 (36 kDa) (compared with OVX controls): 2.7 fold
- Uterine expression changes: IGFBP 5, latent TGF beta binding protein 1, cysteine-rich angiogenic inducer 61 (cynomolgus monkey, in vivo): only modest changes
- Uterine expression of the remaining signal transduction genes examined (tamoxifen: except for LDL receptor adaptor protein): downregulated
- Fold change relative to OVX: ATPase, H+ transporting, lysosomal 38 kda, V0 subunit d isoform 1 (uterus, OVX monkeys): 1.2 fold
- Fold change relative to OVX: ATPase, Na+/K+ transporting, beta 3 polypeptide (uterus, OVX monkeys): 2.1 fold
- Fold change relative to OVX: Biglycan (uterus, OVX monkeys): 2.0 fold
- Fold change relative to OVX: CDC28 protein kinase regulatory subunit 2 (uterus, OVX monkeys): 3.1 fold
- Fold change relative to OVX: Cadherin 11, type 2, OB-cadherin (osteoblast) (uterus, OVX monkeys): 3.2 fold
- Fold change relative to OVX: Calcium channel, voltage-dependent, beta 2 subunit (uterus, OVX monkeys): 0.5 fold
- Fold change relative to OVX: Catenin (cadherin-associated protein), alpha-like 1 (uterus, OVX monkeys): 0.7 fold
- Fold change relative to OVX: Chitinase 3-like 1 (cartilage glycoprotein-39) (uterus, OVX monkeys): 1.7 fold
- Fold change relative to OVX: Chloride intracellular channel 4 (uterus, OVX monkeys): 1.9 fold
- Fold change relative to OVX: Chondroitin sulfate proteoglycan 2 (versican) (uterus, OVX monkeys): 2.9 fold
- Fold change relative to OVX: Collagen, type I, alpha 1 (uterus, OVX monkeys): 3.5 fold
- Fold change relative to OVX: Collagen, type IV, alpha 2 (uterus, OVX monkeys): 2.2 fold
- Fold change relative to OVX: Collagen, type V, alpha 1 (uterus, OVX monkeys): 1.3 fold
- Fold change relative to OVX: Collagen, type VI, alpha 3 (uterus, OVX monkeys): 2.0 fold
- Fold change relative to OVX: Collagen, type VIII, alpha 2 (uterus, OVX monkeys): 1.8 fold
- Fold change relative to OVX: Cyclin D1 (PRAD1: parathyroid adenomatosis 1) (uterus, OVX monkeys): 1.8 fold
- Fold change relative to OVX: Cysteine-rich, angiogenic inducer, 61 (uterus, OVX monkeys): 1.6 fold
- Fold change relative to OVX: Cytochrome c oxidase subunit via polypeptide 1 (uterus, OVX monkeys): 1.3 fold
- Fold change relative to OVX: Cytochrome c oxidase subunit viia polypeptide 2 (liver) (uterus, OVX monkeys): 1.6 fold
- Fold change relative to OVX: Dermatopontin (uterus, OVX monkeys): 1.8 fold
- Fold change relative to OVX: Dishevelled associated activator of morphogenesis 1 (uterus, OVX monkeys): 1.2 fold
- Fold change relative to OVX: Fibroblast growth factor 2 (basic) (uterus, OVX monkeys): 2.0 fold
- Fold change relative to OVX: Fibulin 1 (uterus, OVX monkeys): 1.9 fold
- Fold change relative to OVX: Four and a half LIM domains 2 (uterus, OVX monkeys): 1.7 fold
- Fold change relative to OVX: G1 to S phase transition 1 (uterus, OVX monkeys): 1.6 fold
- Fold change relative to OVX: Growth associated protein 43 (uterus, OVX monkeys): 1.9 fold
- Fold change relative to OVX: H2A histone family, member Y (uterus, OVX monkeys): 1.7 fold
- Fold change relative to OVX: Heparan sulfate proteoglycan 2 (perlecan) (uterus, OVX monkeys): 2.2 fold
- Fold change relative to OVX: Histone H2A.F/Z variant (uterus, OVX monkeys): 1.5 fold
- Fold change relative to OVX: Insulin-like growth factor binding protein 2, 36 kda (uterus, OVX monkeys): 2.7 fold
- Fold change relative to OVX: Insulin-like growth factor binding protein 5 (uterus, OVX monkeys): 2.0 fold
- Fold change relative to OVX: Integrin, beta 5 (uterus, OVX monkeys): 1.5 fold
- Fold change relative to OVX: Intercrine-alpha, mrna sequence (uterus, OVX monkeys): 1.5 fold
- Fold change relative to OVX: LDL receptor adaptor protein (uterus, OVX monkeys): 1.2 fold
- Fold change relative to OVX: LIM and senescent cell antigen-like domains 1 (uterus, OVX monkeys): 2.9 fold
- Fold change relative to OVX: Laminin, beta 1 (uterus, OVX monkeys): 1.4 fold
- Fold change relative to OVX: Latent transforming growth factor beta binding protein 1 (uterus, OVX monkeys): 2.6 fold
- Fold change relative to OVX: Matrix metalloproteinase 19 (uterus, OVX monkeys): 1.6 fold
- Fold change relative to OVX: Mitogen-activated protein kinase kinase kinase kinase 4 (uterus, OVX monkeys): 0.6 fold
- Fold change relative to OVX: Nidogen (enactin) (uterus, OVX monkeys): 1.9 fold
- Fold change relative to OVX: Osteoglycin (osteoinductive factor, mimecan) (uterus, OVX monkeys): 1.7 fold
- Fold change relative to OVX: Peroxiredoxin 1 (uterus, OVX monkeys): 1.7 fold
- Fold change relative to OVX: Phosphatase and tensin homolog (mutated in multiple advanced cancers 1) (uterus, OVX monkeys): 1.6 fold
- Fold change relative to OVX: Phospholipid transfer protein (uterus, OVX monkeys): 1.4 fold
- Fold change relative to OVX: Pituitary tumour-transforming 1 interacting protein (uterus, OVX monkeys): 1.9 fold
- Fold change relative to OVX: Procollagen C-endopeptidase enhancer (uterus, OVX monkeys): 2.3 fold
- Fold change relative to OVX: Procollagen-proline, 2-oxoglutarate 4-dioxygenase (proline 4-hydroxylase), alpha polypeptide II (uterus, OVX monkeys): 1.6 fold
- Fold change relative to OVX: Progesterone receptor (uterus, OVX monkeys): 4.5 fold
- Fold change relative to OVX: Protein tyrosine kinase 9 (uterus, OVX monkeys): 1.7 fold
- Fold change relative to OVX: SET domain, bifurcated 1 (uterus, OVX monkeys): 1.9 fold
- Fold change relative to OVX: SPARC-like 1 (mast9, hevin) (uterus, OVX monkeys): 1.3 fold
- Fold change relative to OVX: Secreted frizzled-related protein 1 (uterus, OVX monkeys): 2.2 fold
- Fold change relative to OVX: Secreted frizzled-related protein 4 (uterus, OVX monkeys): 2.9 fold
- Fold change relative to OVX: Secreted protein, acidic, cysteine-rich (osteonectin) (uterus, OVX monkeys): 2.2 fold
- Fold change relative to OVX: Serine (or cysteine) proteinase inhibitor, clade H (heat shock protein 47), member 1, (collagen binding protein 1) (uterus, OVX monkeys): 2.2 fold
- Fold change relative to OVX: Solute carrier family 22 (organic cation transporter), member 1-like (uterus, OVX monkeys): 1.8 fold
- Fold change relative to OVX: Solute carrier family 25 (mitochondrial carrier; adenine nucleotide translocator), member 5 (uterus, OVX monkeys): 2.2 fold
- Fold change relative to OVX: Stem cell growth factor; lymphocyte secreted C-type lectin (uterus, OVX monkeys): 1.4 fold
- Fold change relative to OVX: Tenascin C (hexabrachion) (uterus, OVX monkeys): 3.8 fold
- Fold change relative to OVX: Testis Enhanced Gene Transcript (Bax Inhibitor 1) (uterus, OVX monkeys): 1.5 fold
- Fold change relative to OVX: Thioredoxin interacting protein (uterus, OVX monkeys): 0.6 fold
- Fold change relative to OVX: Transforming growth factor, beta-induced, 68 kda (uterus, OVX monkeys): 2.2 fold
- Fold change relative to OVX: Ubiquinol-cytochrome c reductase, Rieske iron-sulfur polypeptide 1 (uterus, OVX monkeys): 1.4 fold
- Fold change relative to OVX: Wingless-type MMTV integration site family, member 2B (uterus, OVX monkeys): 1.9 fold
- Fold change relative to OVX: Wingless-type MMTV integration site family, member 16 (uterus, OVX monkeys): 1.1 fold
- Fold change relative to SHAM control: ATPase, H+ transporting, lysosomal 38 kda, V0 subunit d isoform 1 (uterus, OVX monkeys): 1.0 fold
- Fold change relative to SHAM control: ATPase, Na+/K+ transporting, beta 3 polypeptide (uterus, OVX monkeys): 1.2 fold
- Fold change relative to SHAM control: Biglycan (uterus, OVX monkeys): 0.7 fold
- Fold change relative to SHAM control: CDC28 protein kinase regulatory subunit 2 (uterus, OVX monkeys): 1.9 fold
- Fold change relative to SHAM control: Cadherin 11, type 2, OB-cadherin (osteoblast) (uterus, OVX monkeys): 1.9 fold
- Fold change relative to SHAM control: Calcium channel, voltage-dependent, beta 2 subunit (uterus, OVX monkeys): 0.9 fold
- Fold change relative to SHAM control: Catenin (cadherin-associated protein), alpha-like 1 (uterus, OVX monkeys): 1.5 fold
- Fold change relative to SHAM control: Chitinase 3-like 1 (cartilage glycoprotein-39) (uterus, OVX monkeys): 1.2 fold
- Fold change relative to SHAM control: Chloride intracellular channel 4 (uterus, OVX monkeys): 1.1 fold
- Fold change relative to SHAM control: Chondroitin sulfate proteoglycan 2 (versican) (uterus, OVX monkeys): 2.1 fold
- Fold change relative to SHAM control: Collagen, type I, alpha 1 (uterus, OVX monkeys): 1.3 fold
- Fold change relative to SHAM control: Collagen, type IV, alpha 2 (uterus, OVX monkeys): 1.3 fold
- Fold change relative to SHAM control: Collagen, type V, alpha 1 (uterus, OVX monkeys): 0.6 fold
- Fold change relative to SHAM control: Collagen, type VI, alpha 3 (uterus, OVX monkeys): 1.1 fold
- Fold change relative to SHAM control: Collagen, type VIII, alpha 2 (uterus, OVX monkeys): 1.1 fold
- Fold change relative to SHAM control: Cyclin D1 (PRAD1: parathyroid adenomatosis 1) (uterus, OVX monkeys): 2.0 fold
- Fold change relative to SHAM control: Cysteine-rich, angiogenic inducer, 61 (uterus, OVX monkeys): 0.9 fold
- Fold change relative to SHAM control: Cytochrome c oxidase subunit via polypeptide 1 (uterus, OVX monkeys): 1.2 fold
- Fold change relative to SHAM control: Cytochrome c oxidase subunit viia polypeptide 2 (liver) (uterus, OVX monkeys): 1.7 fold
- Fold change relative to SHAM control: Dermatopontin (uterus, OVX monkeys): 1.0 fold
- Fold change relative to SHAM control: Dishevelled associated activator of morphogenesis 1 (uterus, OVX monkeys): 0.8 fold
- Fold change relative to SHAM control: Fibroblast growth factor 2 (basic) (uterus, OVX monkeys): 1.0 fold
- Fold change relative to SHAM control: Fibulin 1 (uterus, OVX monkeys): 1.1 fold
- Fold change relative to SHAM control: Four and a half LIM domains 2 (uterus, OVX monkeys): 1.1 fold
- Fold change relative to SHAM control: G1 to S phase transition 1 (uterus, OVX monkeys): 1.3 fold
